The results in this text go back to the METLIN SMRT retention time set (Domingo-Almenara et al. 2019).

The structures appear in SMILES notation.

The data set in a line: gradient 5% acetonitrile 3 min, to 50% in 2 min, to 85% in 15 min, held 3 min, 100 µL/min. The note with it: column: Zorbax Extend-C18 2.1 x 50 mm; eluents: water / acetonitrile, 0.1% formic acid. In a few lines: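 Data were gathered over 3 months by HPLC coupled to a quadrupole time-of-flight mass spectrometer, operated in positive and negative ionization mode. Mixtures of ~100 pure standards ran on a Zorbax Extend-C18 column (2.1 × 50 mm, 1.8 μm) at 100 μL/min, with water and acetonitrile each containing 0.1% formic acid and dead and dwell volumes of 40 μL and 900 μL. Retention time was read from adduct peaks picked by computer and checked manually.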
Consider `COc1ccc2c(c1)C1(CCN(C(=O)c3ccccc3F)C1)C(=O)N2` (stereo not given), for which the RP-LC retention time stood at 703 s.

On to `COc1ccc(-n2nc3c(N4CCCC(C(=O)NCc5cccs5)C4)nnc(C)c3c2C)cc1` (stereo not given), for which the RP-LC retention time was found to be 724 s.

For the molecule `O=C(Cn1cccc1-c1nnc(-c2ccccc2)o1)N1CCN(C(=O)c2ccco2)CC1`, the RP-LC retention time was 774 s. The same measure for `Cc1ccsc1C(=O)NCC12CCCC=C1N(C)C(=O)CC2` (stereo not given): 785 s; for `Cc1ccc(Cl)cc1NC(=O)Cn1ncc2c(c1=O)N(CC1CC1)C(=O)CS2`: 860 s. The same measure for `O=C(NCCCN1CCN(c2ccccc2F)CC1)c1nnc(-c2ccccc2)o1`: 664 s; for `COCCNC(=O)CSc1nccc2c1ccn2Cc1ccccc1`: 666 s. The same measure for `Cc1cc(C)c(NC(=O)Cn2cccc(-c3nc(-c4ccc(Br)cc4)no3)c2=O)c(C)c1`: 1030 s; for `CCOC(=O)c1cn2nc(SCc3ccccc3)nc2nc1C`: 1000 s. In turn, `CS(=O)(=O)N1C[C@H]2CCN(Cc3cn[nH]c3-c3ccccc3)C[C@H]21` returned an RP-LC retention time of 574 s. Regarding `CC1=C(c2ccc(F)cc2)S(=O)(=O)N=C1N1CCCN(C(=O)c2ccccn2)CC1`, the RP-LC retention time came to 713 s. As for `O=C(NCCN1CCCCCC1)C1CCCN(c2ncc(-c3cccc(F)c3)cn2)C1` (stereo not given), the figure is 715 s; as for `Cc1cc(N(C)C)n2nc(CN3CCC(Cc4ccccc4)CC3)nc2n1`, 637 s; as for `COc1cccc(N2CCN(S(=O)(=O)c3cc(-c4nnc(C5CCC5)o4)co3)CC2)c1`, 1060 s. `CCn1nccc1C(=O)N1CCCC1c1ccccc1C` (stereo not given) registered an RP-LC retention time of 836 s. The same measure for `Cc1ccc(N2CC(c3noc(-c4ccc(Cl)cc4)n3)CC2=O)cc1` (stereo not given): 1110 s; for `CCNc1cc(N2CCC(CCC(=O)NCCc3cccs3)CC2)ncn1`: 570 s. For `CN(C)c1ccc(CCNC(=O)C(=O)NCc2ccc3c(c2)OCO3)cc1`, the RP-LC retention time stood at 577 s. The same measure for `Cc1ccc(-c2noc(CCn3nc(-c4ccc(C)c(C)c4)ccc3=O)n2)cc1`: 1150 s; for `Cc1cc(N2CCCCC2)nc(NCCNS(=O)(=O)N(C)C)n1`: 570 s. The same measure for `COC(=O)c1cc(S(=O)(=O)N2CCCC2C(=O)Nc2ccc(F)c(Cl)c2)cn1C` (stereo not given): 978 s; for `O=C(NCc1ccccc1)C1CCc2sc(C(=O)N3CCCC3)cc2C1` (stereo not given): 702 s. As for `CNC(=O)c1cc(-c2ccccc2Cl)n[nH]1`, the figure is 668 s. `CC(C)(Oc1ccc(Cl)cc1)C(=O)NCC1(O)CCc2ccccc21` (stereo not given) yielded an RP-LC retention time of 736 s. In turn, `C=CCn1nnnc1NCc1ccc2c(c1)n(C)c(=O)n2C` registered an RP-LC retention time of 609 s.

As for `Fc1cccc(-c2nc(-c3cn(Cc4ccccc4)nn3)no2)c1`, the RP-LC retention time was determined as 1020 s. The same measure for `COC1CN(c2cccc(F)c2)C12CCN(S(=O)(=O)Cc1ccccc1F)CC2` (stereo not given): 1170 s; for `CN1C(=O)CCc2cc(NC(=O)C3CCC3)ccc21`: 668 s. With `Cc1ccc(CNC(=O)C2(C)CN(S(C)(=O)=O)CC(=O)N2c2ccc(C)c(Cl)c2)cc1` (stereo not given), the RP-LC retention time is 874 s. Take `Cc1ccc(NS(=O)(=O)c2cc3c(s2)CCN(C(=O)C2CC2)C3)cc1`: the RP-LC retention time amounted to 849 s. The same measure for `CC1=C(c2ccccc2)S(=O)(=O)N=C1N1CCCN(C(=O)NCc2ccccc2)CC1`: 843 s. As for `COCCCNC(=O)C1CCC(=O)N(c2cc(OC)c(OC)c(OC)c2)C1c1ccc(OC)cc1` (stereo not given), the figure is 572 s; as for `CCc1cccc(NC(=O)C2CCCN(S(=O)(=O)c3cc(-c4noc(CC)n4)cs3)C2)c1` (stereo not given), 1090 s; as for `CCn1c(SCC(=O)Nc2ccccc2C(F)(F)F)nc2c(c1=O)SC(C)C2` (stereo not given), 854 s. The same measure for `CN(C)C(=O)c1ccc2c(c1)N(CC(=O)Nc1ccc(F)cc1)C(=O)CS2`: 704 s; for `CCn1nccc1C(=O)Nc1c(-c2cccc(F)c2)nc2sc(N3CCCCC3)nn12`: 964 s. `CCOc1ccccc1NC(=O)CN1CCN(c2nccn2-c2ccc(C)cc2)CC1` yielded an RP-LC retention time of 612 s. As for `CN1C(=O)c2cc(C(=O)NCc3cccc(Cl)c3)nn2CC1(C)C(=O)NC1CCCCC1` (stereo not given), the figure is 793 s; as for `CC(C)n1c(=O)c(NCc2cccc(C(F)(F)F)c2)nc2ccncc21`, 725 s; as for `Cc1cc(C)cc(C(=O)N2CCC(c3noc(N)c3C(C)C)CC2)c1`, 829 s. As for `COCCN1C(=O)c2cccn2CC1CNC(=O)c1ccc(Cc2c(C)n[nH]c2C)o1` (stereo not given), the figure is 594 s; as for `Cc1ncc2c(n1)CCN(C(=O)c1ccc(Cl)cc1)C2`, 627 s; as for `COc1cccc(NC2=NS(=O)(=O)c3ccccc32)c1`, 732 s. The molecule `CC1Cc2nc(SCC(=O)NCC3CCCO3)n(-c3ccc(F)cc3)c(=O)c2S1` (stereo not given) had an RP-LC retention time of 728 s. As for `Cc1cc(NCCN(C)C)n2nc(-c3ccccc3)c(C)c2n1`, the figure is 572 s; as for `CCc1csc(-c2cn(CC(=O)NCc3ccc(Cl)cc3)cn2)n1`, 724 s; as for `Cc1cc(NC(=O)C2CCc3nc(N4CCOCC4)ncc3C2)ccc1Cl` (stereo not given), 897 s. `CN(CC1(C)CCOCC1)S(=O)(=O)c1ccccc1C(F)(F)F` showed an RP-LC retention time of 820 s. For `Cn1cnc(S(=O)(=O)N2CC(c3nc(CCOCc4ccccc4)no3)C2)c1`, the RP-LC retention time came to 745 s. The same measure for `Cn1cccc1C(=O)NC1CCCN(c2cc(N3CCCC3)ncn2)C1` (stereo not given): 639 s; for `COc1ccc(N2CCN(C(=O)Cn3ccc4c(SCc5ccccc5)nccc43)CC2)cc1`: 743 s; for `CCNC(=O)C1CCCN(C(=O)c2cc(C)cc(C)c2)C1` (stereo not given): 718 s.

`COc1ccc(-c2nc(CC3CCNC3)no2)cc1` (stereo not given) displayed an RP-LC retention time of 607 s. The same measure for `Cn1c(CN2CCN(C(=O)NC(C)(C)C)CC2)nc2cc(C(=O)N3CCCC3)ccc21`: 602 s; for `O=C(NC1CCCCCC1)C1CCCN(c2ncnc3c2nc2n3CCCCC2)C1` (stereo not given): 816 s; for `O=C(NC(C(=O)N1CCCc2ccccc21)c1ccccc1)C1CC(=O)N(c2ccccc2)C1` (stereo not given): 951 s.

For `C=Cc1ccc(CN2N=C(C(=O)N3CCOCC3)S(=O)(=O)c3ccc(C)cc32)cc1`, the RP-LC retention time stood at 919 s.

In turn, `Cc1ccc(OCC(=O)Nc2nnc(SCc3nnc(-c4ccccc4)o3)s2)c(C)c1` displayed an RP-LC retention time of 998 s.

The molecule `O=C(Cn1cnc2nc(N3CCC(C(=O)NC4CC4)CC3)sc2c1=O)NC1CCCC1` had an RP-LC retention time of 609 s. The same measure for `COCC(=O)NC1CCC12CCN(Cc1ccc(C)o1)CC2` (stereo not given): 583 s.

Turning to `CCCn1c(=O)sc2cc(S(=O)(=O)N3CCC(C(=O)NCc4ccc(F)cc4)CC3)ccc21`, the RP-LC retention time was 934 s.

With `CN(C)CCn1nnc2cc(-c3noc(-c4cccc(F)c4)n3)ccc21`, the RP-LC retention time was 676 s. The same measure for `CS(=O)(=O)N1CCc2ccc(C(=O)N3CCCCC3)cc21`: 717 s; for `COc1cc(OC)cc(-c2nc(-c3cn(-c4ccc(C)cc4)nn3)no2)c1`: 1140 s. Regarding `O=C(Cn1c(=O)c2nncn2c2ncccc21)N1CCN(c2ccccc2)CC1`, the RP-LC retention time is 674 s. As for `O=C(Cc1cccc(F)c1)N1CCC(Nc2ncnc3c2CCC3)C1` (stereo not given), the RP-LC retention time stood at 617 s.

In turn, `COc1ccc(N2C(=O)CN(C(C)c3ccccc3)[C@H]3CS(=O)(=O)C[C@H]32)cc1` (stereo not given in full) showed an RP-LC retention time of 808 s. Regarding `COc1ccc(OC)c(NC(=O)N2CCN(c3nc4ccccc4nc3C(F)(F)F)CC2)c1`, the RP-LC retention time came to 1070 s. The same measure for `NS(=O)(=O)c1ccc2nc(NC(=O)COc3ccc(Cl)cc3)sc2c1`: 766 s; for `Cc1ccn2cc(-c3ccc(NC(=O)c4cccc(C(F)(F)F)c4)cc3)nc2n1`: 716 s; for `CCCn1ccc2sc(C)c(C(=O)NCc3ccc(Cl)cc3)c2c1=O`: 985 s. The same measure for `CCCN1C(=O)COc2ccc(-c3csc(NC(=O)C(C)C)n3)cc21`: 918 s. The same measure for `O=C(Nc1cc(F)cc(F)c1)c1csc(-c2ccc(N3CCCC3)nc2)n1`: 853 s. Turning to `O=C(Nc1cnc(N2CCOCC2)nc1)c1ccccc1Br`, the RP-LC retention time was found to be 725 s.

Molecule `CC(C)NC(=O)c1cccc(Nc2c(-c3ccc(Cl)cc3)nc3cnccn23)c1` returned an RP-LC retention time of 687 s. As for `CN(C(=O)c1cc2c(=O)oc3ccccc3c2n1C)c1cccc(Cl)c1`, the figure is 933 s; as for `CCOC(=O)Cc1[nH]nc2ccc(F)cc12`, 697 s. On to `O=C1COc2cc(Cl)ccc2N1Cc1nc(-c2ccccc2)no1`, for which the RP-LC retention time amounted to 1060 s. The same measure for `Cc1ccc(NC(=O)C2CCN(C(=O)c3ncn4c3COC(c3ccc(F)cc3)C4)CC2)c(Cl)c1` (stereo not given): 842 s; for `Cc1cccc(CNC(=O)CC2CCN(C(=O)c3[nH]c(C)cc3C)CC2)c1`: 794 s.
